Data published in publication PMC10955127 (Frontiers in Pharmacology, 2024).
Read-outs that look alike come from different tables or passages of the source.

Legend:
[1] = tested on: thyroid pathway; design: method as in ToxCast database; details: ref ToxCast database; cited from earlier work
[2] = design: method as in ToxCast database; details: ref ToxCast database; cited from earlier work
[3] = tested on: thyroid pathway; design: method as in ToxCast database; details: ref ToxCast database; cited from earlier work; remark: listed apart in the source
[4] = In vitro skin penetration and metabolism, fresh viable pig skin on static Franz cells; details: for Total recovery: SA corrected by the amount of SA present in the formulation
Source text: Fresh viable pig skin (without hot steam treatment, by-product from meat industry) was obtained from a local, commercial butcher (Hammoor, Germany). The back skin was from female pigs (bred from “Dänische Landrasse” (female) and Pietrain (male) pigs, ~130 days old, 100 kg body weight). Pig skin samples were gently dry-shaved and washed with water before use. For the experiment, 2 replicate discs from each of 3 donors were used.
Skin of full-thickness was mounted on static Franz cells with a 4.9 cm² application area. The receptor compartment of the diffusion cell was filled with approx. 5 ml RF (1% BSA, 0.9% NaCl, 0.05% gentamycin sulfate in water), above a magnetic stirrer set to low rotation. […] The experiment was conducted using non-occluded conditions.
The dermal absorption was calculated as the total amount present within epidermis (without the amount in the total SC strips), dermis and RF.

[5] = tested on: Aromatase; design: method as in ToxCast database; details: ref ToxCast database; cited from earlier work
[6] = tested on: MCF-7 cells; format: cell-based; details: 1,000 µM SA or 1 μM trichostatin A, analysis Method 1
[7] = tested on: thyroid pathway; design: method as in ToxCast database; details: ref ToxCast database; cited from earlier work; remark: listed apart in the source
[8] = tested on: estrogen receptor; design: method as in ToxCast database; details: ref ToxCast database, cited from earlier work
[9] = tested on: rats; details: highest dose tested; KS2; cited from earlier work
[10] = tested on: estrogen receptor; design: method as in ToxCast database; details: ref ToxCast database, cited from earlier work; for AC50: read-out: Estrogen pathway Reporter protein Agonist: AC50
[11] = tested on: Thyroid (TR and TPO only); design: method as in ToxCast; details: ref ToxCast, cited from earlier work; for Thyroid (TR and TPO only): Experimental Data (call): Tier 0
[12] = KS2; cited from earlier work
[13] = tested on: TSHR; design: method as in ToxCast database; details: ref ToxCast database; cited from earlier work
[14] = tested on: estrogen receptor; design: method as in ToxCast database; details: ref ToxCast database, cited from earlier work; remark: listed apart in the source
[15] = tested on: estrogen receptor; design: method as in ToxCast database; details: ref ToxCast database; cited from earlier work
[16] = ref PubChem or the ECHA database; cited from earlier work
[17] = tested on: estrogen receptor; design: method as in ToxCast database; details: ref ToxCast database; cited from earlier work; remark: listed apart in the source
[18] = tested on: estrogen receptor; design: method as in ToxCast database; details: ref ToxCast database, cited from earlier work; remark: listed apart in the source
[19] = tested on: estrogen receptor (ER); details: cited from earlier work; for Estrogen: Experimental Data (call): Tier 0; for Estrogen: Experimental Data (call) / Estrogen: assays active / assays: ref ToxCast
[20] = in vitro; format: in vitro ADME
Description: […]. Samples were precipitated with an equal volume of acetonitrile containing internal standards (1 μM diazepam, 1 μM griseofulvin, 10 μM diclofenac) and then centrifuged (4800 x g, room temperature, 5 min) before analysis by UHPLC-MS/HRMS.
The amount of compound in the samples was expressed as percentage of remaining compound compared to time point zero (=100%). These percentages were plotted against the corresponding time points. In vitro intrinsic clearance (CLint) and half-life (t1/2) estimates were determined using the rate of precursor disappearance and following formula, based on the well-stirred liver model (Obach 1999):
t1/2 = half-life [min]; k = slope from the linear regression of log [test compound] versus time plot [1/min]
Where CLint = in vitro intrinsic clearance [μl/min/10^6 cells]; t1/2 = half-life [min]; k = slope of the linear regression of log [test compound] versus time plot [1/min]; V = ratio of incubation volume and cell number and fu = unbound fraction in the blood. […]

[21] = tested on: androgen receptor; design: method as in ToxCast database; details: ref ToxCast database; cited from earlier work
[22] = tested on: androgen receptor; design: method as in ToxCast database; details: ref ToxCast database; cited from earlier work; remark: listed apart in the source
[23] = tested on: androgen receptor; design: method as in ToxCast database; details: ref ToxCast database; cited from earlier work; remark: listed apart in the source
[24] = tested on: androgen receptor (AR); design: method as in ToxCast; details: ref ToxCast, cited from earlier work
[25] = tested on: androgen receptor; design: method as in ToxCast database; details: ref ToxCast database; cited from earlier work; remark: listed apart in the source
[26] = tested on: mice; details: KS2; cited from earlier work
[27] = Fraction unbound in the plasma (Fup); details: human
[28] = 24.14 mg/kg/day product, 0.5% BSal, 10.5% absorption
[29] = tested on: H295R cell line; design: method as in ToxCast database; details: ref ToxCast database, cited from earlier work
[30] = tested on: H295R cell line; design: method as in ToxCast database; details: ref ToxCast database, cited from earlier work; remark: listed apart in the source
[31] = ref PubChem or the ECHA database; cited from earlier work; remark: listed apart in the source
[32] = design: method as in PubChem or the ECHA database; details: at 25°C; ref PubChem or the ECHA database; cited from earlier work
[33] = tested on: H295R cell line; design: method as in ToxCast database; details: ref ToxCast database, cited from earlier work; remark: listed apart in the source
[34] = at 35°C; ref PubChem or the ECHA database; cited from earlier work
[35] = in vivo; details: human
[36] = design: method as in SCCS, 2023a; details: frozen human skin, 14C-radio-labelled BSal in a formulation at 0.5%; ref SCCS, 2023a; cited from earlier work
[37] = tested on: THRa; design: method as in ToxCast database; details: ref ToxCast database; cited from earlier work
[38] = 24 h after application of 0.5% BSal in formulation
[39] = 24 h after application of 0.5% BSal in formulation, mean ± SD, n = 6

## O=C(O)CNC(=O)c1ccccc1 [Hippuric acid, hippuric acid]
[1]
  Thyroid pathway Reporter protein Agonist: Call: Negative
[2]
  Result in all 259 ToxCast assays: SA: alerts for developmental toxicity, reproductive toxicity, nephrotoxicity, hepatotoxicity, Hippuric acid: negative in all 259 ToxCast assays
[3]
  Thyroid pathway Reporter protein Antagonist: Call: Negative
[4]
  Receptor fluid: < LOQ*
  Surface: < LOQ*
[5]
  Steroidogenesis Aromatase: Call: Negative

## CC(/C=C/C(=O)NO)=C\[C@@H](C)C(=O)c1ccc(N(C)C)cc1 [trichostatin A, Trichostatin A]
[6]; 6 h
  Number of genes altered by > 1.5-fold or < -1.5-fold: ~10,000 genes
[6]; 24 h
  Number of genes altered by > 1.5-fold or < -1.5-fold: ~10,000 genes

## O=Cc1ccccc1 [Benzaldehyde, benzaldehyde]
[4]; [38]
  Total recovery: < LOQ*

## O=C(O)c1ccccc1 [BA, benzoic acid]
[1]
  Thyroid pathway Reporter protein Agonist: Call: Negative
[7]
  Thyroid pathway mRNA induction: Call: Negative
[3]
  Thyroid pathway Reporter protein Antagonist: Call: Negative
[8]
  Estrogen pathway Dimerisation: Call: Negative
[9]
  Reproductive toxicity NOAEL: NOAEL 900 mg/kg bw (highest dose tested)
[10]
  Estrogen pathway Reporter protein Agonist: Call: Positive
  AC50: 7.54 µM
[4]; 24 h, epidermis + dermis + receptor fluid
  Dermal absorption of individual analytes: 1.2 ± 0.7 percentage of the applied dose
[4]; [38]
  Total recovery: 19.8 ± 17.2 percentage of the applied dose
[4]; [39]
  Dermis: 1.2 ± 0.7 percentage of the applied dose
  Epidermis: < LOQ*
  Receptor fluid: < LOQ*
  Stratum corneum: 16.8 ± 16.3 percentage of the applied dose
[4]; 24 h after application of 0.5% BSal in formulation, mean ± SD, n = 6 skin discs (three donors)
  Surface: 1.7 ± 1.2 percentage of the applied dose
[11]
  Thyroid (TR and TPO only): Experimental Data (call): Negative
  Thyroid (TR and TPO only): assays active / assays: 0/12 active
[12]
  Developmental Toxicity NOAEL: NOAEL 1306 mg/kg bw
[13]
  Thyroid pathway Regulation of transcription factor activity (TSHR): Call: Negative
[14]
  Estrogen pathway Cell Proliferation: Call: Negative
[5]
  Steroidogenesis Aromatase: Call: Negative
[15]
  Estrogen pathway receptor binding: Call: Negative
[16]
  Vapor pressure: 0.1 Pa
[17]
  Estrogen pathway Reporter protein Antagonist: Call: Negative
[18]
  Estrogen pathway mRNA induction: Call: Negative

## OCc1ccccc1 [BAlc, benzyl alcohol]
[19]
  Estrogen: Experimental Data (call): Negative
  Estrogen: assays active / assays: 0/18 active
[1]
  Thyroid pathway Reporter protein Agonist: Call: Negative
[7]
  Thyroid pathway mRNA induction: Call: Negative
[3]
  Thyroid pathway Reporter protein Antagonist: Call: Negative
[8]
  Estrogen pathway Dimerisation: Call: Negative
[20]; both, human, hepatocytes, 5 µM
  Time within which rapidly metabolized in PHH: ≤ 30 min
[10]
  Estrogen pathway Reporter protein Agonist: Call: Negative
[21]
  Androgen pathway mRNA induction: Call: Negative
[4]
  Stratum corneum: < LOQ*
  Surface: < LOQ*
[22]
  Androgen pathway Reporter protein Agonist: Call: Negative
[11]
  Thyroid (TR and TPO only): Experimental Data (call): Negative
  Thyroid (TR and TPO only): assays active / assays: 0/12 active
[23]
  Androgen pathway Dimerisation: Call: Negative
[24]; Tier 0
  Androgen: Experimental Data (call): Negative
[24]
  Androgen: assays active / assays: 0/14 active
[13]
  Thyroid pathway Regulation of transcription factor activity (TSHR): Call: Negative
[25]
  Androgen pathway Reporter protein Antagonist: Call: Negative
[5]
  Steroidogenesis Aromatase: Call: Negative
[16]
  Vapor pressure: 7 Pa
[26]
  Developmental Toxicity NOAEL: NOAEL: 200 mg/kg
[17]
  Estrogen pathway Reporter protein Antagonist: Call: Negative
[18]
  Estrogen pathway mRNA induction: Call: Negative

## O=C(OCc1ccccc1)c1ccccc1O [BSal, benzyl salicylate]
[27]
  fraction unbound: 0.0066
[19]
  Estrogen: Experimental Data (call): Positive
  Estrogen: assays active / assays: 9 out of 18
[19]; binding assay for ERα, assay name OT_ER_ERaERa_0480, ref ToxCast database, read-out: Lowest reported AC50
  AC50: 36.5 µM
[19]; listed as Benzyl salicylate
  Estrogen: assays active / assays: 9/18 assays active
[28]
  SED total: 24.14 × 0.5/100 × 10.5/100 = 0.01267 mg/kg/d
[1]
  Thyroid pathway Reporter protein Agonist: Call: Negative
[7]
  Thyroid pathway mRNA induction: Call: Negative
[3]
  Thyroid pathway Reporter protein Antagonist: Call: Negative
[29]
  Steroidogenesis Corticosterone in H295R cell line: call: Positive
[29]; read-out: Steroidogenesis Corticosterone in H295R cell line: AC50
  AC50: 36.8 µM
[8]
  Estrogen pathway Dimerisation: Call: Positive
[8]; read-out: Estrogen pathway Dimerisation: AC50
  AC50: 36.5 µM
[20]; after 90, 120, and 240 min
  Initial concentration detected: 0.1%–0.2%
[20]; after 30 min, 20 µM BSal
  Initial concentration remaining: 10%
[20]; both sexes, human, hepatocytes, 20 µM, 0.8 million cells/ml, read-out: Half-life in PHH
  half-life at 20 µM: 9.2 min
[20]; both sexes, human, hepatocytes, PHH, read-out: In vitro intrinsic clearance (CLint, in vitro)
  hepatocyte CLint at 20 µM: 94.2 µL/min/1e6 cells
[10]
  Estrogen pathway Reporter protein Agonist: Call: Positive
  AC50: 39.2 µM
[30]
  Steroidogenesis 17alpha-hydroxyprogesterone in H295R cell line: call: Positive
[30]; read-out: Steroidogenesis 17alpha-hydroxyprogesterone in H295R cell line: AC50
  AC50: 54.7 µM
[4]
  Receptor fluid: < LOQ*
[11]
  Thyroid (TR and TPO only): Experimental Data (call): Negative
  Thyroid (TR and TPO only): assays active / assays: 0/11 active
[31]
  Water solubility: 8800 µg/mL
[32]
  pKa: 9.82
[33]
  Steroidogenesis Progesterone in H295R cell line: call: Positive
[33]; read-out: Steroidogenesis Progesterone in H295R cell line: AC50
  AC50: 43.7 µM
[13]
  Thyroid pathway Regulation of transcription factor activity (TSHR): Call: Negative
[14]
  Estrogen pathway Cell Proliferation: Call: Positive
[14]; read-out: Estrogen pathway Cell Proliferation: AC50
  AC50: 85.2 µM
[5]
  Steroidogenesis Aromatase: Call: Negative
[34]
  Partition coefficient (Log Pow): 4
[16]
  Vapor pressure: 0.01 Pa
[35]
  NOAEL: 123 mg/kg/day
[36]
  Skin absorption: 9.01 % of the applied dose
[17]
  Estrogen pathway Reporter protein Antagonist: Call: Negative
[37]
  Thyroid pathway receptor binding (THRa): Call: Negative
[18]
  Estrogen pathway mRNA induction: Call: Positive
[18]; read-out: Estrogen pathway mRNA induction: AC50
  AC50: 37 µM
